Question: For C[C@H]1[C@@H](C(C)(C)O)CCN1c1ccc(C#N)c(Cl)c1F, which melting point is on record?
Answer: 125 to 126 °C

Question: Which melting point does the source give for COC1=CC(=O)N/C1=C\C(C)C here?
Answer: 140 to 141 °C

Question: With COC(=O)C(Cl)=Cc1cccc([N+](=O)[O-])c1Cl as the compound, how does the melting point read?
Answer: 110 to 112 °C

Question: For CNc1nc(C)c(C(=O)C(C#N)=CN(C)C)s1, which melting point is on record?
Answer: 245 to 246 °C

Question: For CCCc1nc(NC(=O)N(C)C)nc(N2CCOCC2)n1, which melting point is on record?
Answer: 110 to 111 °C

Question: Which melting point does the source give for COC(=O)CCC#Cc1ccc(C(F)(F)F)cc1N here?
Answer: 42 °C

Question: For CCCCCc1ccc(-c2ccc(C(=O)O)cc2)cc1, which melting point is on record?
Answer: 174 °C

Question: Which melting point does the source give for CC(OCc1ccc2ccccc2c1)(C(N)=O)C(F)(F)F (stereo not given) here?
Answer: 111 to 112 °C

Question: Which melting point does the source give for CO/N=C(/C)c1cccc(NC(=O)NCC(=O)N(CC(=O)N(C)c2ccccc2)c2ccccc2)c1 here?
Answer: 165 °C

Question: Which melting point does the source give for CCc1cc(C(=O)c2ccccc2Cl)c(-n2c(C)nnc2CNC(=O)Nc2cccc(C(=O)O)c2)s1 here?
Answer: 178 to 180 °C

Question: Which melting point does the source give for CCCCCCCCCCCCCCCCCCOc1cc(OCCCCc2ccc3cc(O)c(O)cc3c2)cc(N(CC(=O)O)CC(=O)O)c1 here?
Answer: 153 to 155 °C

Question: Which melting point does the source give for CC(Nc1nc(N)nc(C(F)(F)F)n1)c1ccc(Cl)cc1 (stereo not given) here?
Answer: 99 °C

Question: Which melting point does the source give for CC(=O)Nc1nc(-c2ccc([N+](=O)[O-])cc2)c(C)[nH]1 here?
Answer: 230 to 235 °C

Question: For CCN1CCN(c2ccc(-c3[nH]nc4c3C(=O)c3c(NC(=O)NN5CCOCC5)cccc3-4)cc2)CC1, which melting point is on record?
Answer: 245 °C

Question: For CC(=O)N1CCC(Oc2ccc(N(C)C)cc2)CC1, which melting point is on record?
Answer: 78 to 80 °C

Question: For Clc1ccc2c(N[C@@H]3CCC[C@H](Nc4ccnc5cc(Cl)ccc45)C3)ccnc2c1, which melting point is on record?
Answer: > 250 °C

Question: For O=C1Nc2ccccc2CCC1Cl (stereo not given), which melting point is on record?
Answer: 163 to 167 °C

Question: With O=C(O)COc1ccc2cc(CNC(=O)c3cc(-c4ccc(Cl)cc4)oc3C(F)(F)F)ccc2c1 as the compound, how does the melting point read?
Answer: 194 to 196 °C

Question: For OCc1nnc(-c2ccc3occ(-c4cccc(OC(F)(F)F)c4)c3c2)o1, which melting point is on record?
Answer: 158 to 159 °C

Question: For CCc1ncccc1NC(=NC#N)NC(NC(=O)Cc1ccc(Cl)cc1)C(C)(C)C (stereo not given), which melting point is on record?
Answer: 112 to 114 °C

Question: Which melting point does the source give for CCCc1nn(C)c2c(=O)[nH]c(Cc3ccc(N(CC)C(C)=O)cc3)nc12 here?
Answer: 149 to 151 °C

Question: With Cc1cc(N)c(C(=O)OC(C)C)cc1Oc1ccc(OC(F)(F)F)cc1 as the compound, how does the melting point read?
Answer: 71 to 72 °C

Question: With CCOC(=O)c1c(C(F)(F)F)nc(C(F)F)c(C(=O)OC)c1F as the compound, how does the melting point read?
Answer: 40 to 41 °C

Question: With Cc1nn(C)c2nc(N)[nH]c(=O)c12 as the compound, how does the melting point read?
Answer: > 300 °C

Question: With Cn1nc(O[C@@H]2c3cc(C#N)ccc3OC(CF)(CF)[C@H]2O)ccc1=O (relative stereo) as the compound, how does the melting point read?
Answer: 215 to 217 °C

Question: With CC(=O)SCC(Cc1ccccc1)C(=O)NC(CCCNC(=N)N)C(=O)O (stereo not given) as the compound, how does the melting point read?
Answer: 253 to 295 °C

Question: With Cc1nc(N)nc(N)c1-c1cc(Cl)ccc1Cl as the compound, how does the melting point read?
Answer: 226 to 228 °C

Question: With CC(=O)OCC(=O)c1ccc(-c2ccccc2)cc1 as the compound, how does the melting point read?
Answer: 109 to 110 °C

Question: With O=C1C=C(c2c[nH]c3ccc(Br)cc23)C(=O)N1 as the compound, how does the melting point read?
Answer: 268 °C

Question: For CC1Cc2c(N3CCN(C)CC3)c(F)c(N)c3c(=O)c(C(=O)O)cn1c23 (stereo not given), which melting point is on record?
Answer: 240 to 243 °C

Question: With CCc1cc(C(C)=O)c(O)c(C(=O)Nc2nnn[nH]2)c1 as the compound, how does the melting point read?
Answer: 257 to 258 °C

Question: With O=C(CCCCSc1nc(-c2ccccc2)c(-c2ccccc2)[nH]1)NCCOCCO as the compound, how does the melting point read?
Answer: 176 to 178 °C

Question: For CCCCc1nn(-c2cc(NC(=O)CC)ccc2C(F)(F)F)c(=O)n1Cc1ccc(-c2ccccc2S(=O)(=O)NC(=O)OC(C)(C)C)cc1, which melting point is on record?
Answer: 158 to 161 °C

Question: Which melting point does the source give for O=c1c(Nc2ccc(Cl)cc2)nc2ccccc2n1-c1ccc(Cl)cc1 here?
Answer: 258 to 260 °C

Question: Which melting point does the source give for Cc1cc2oc(=O)c(NC(N)=O)c(-c3ccccc3C)c2cc1Cl here?
Answer: 240 to 242 °C

Question: For CC(C)(C)c1ccc(C(O)(c2ccccc2)C2CCN(CCCC(O)c3ccccc3)CC2)cc1 (stereo not given), which melting point is on record?
Answer: 161 to 163 °C

Question: For O=C(NC(=O)c1cccs1)c1cncc([N+](=O)[O-])c1, which melting point is on record?
Answer: 187 °C

Question: Which melting point does the source give for COC(=O)c1ccc2nc3c(nc2c1)SC(C#N)=C(C#N)S3 here?
Answer: 133 to 135 °C

Question: Which melting point does the source give for CC(C)[C@H]1COC(=O)N1C(=O)[C@H](C)CC(=O)OC(C)(C)C here?
Answer: 64 to 65 °C

Question: For Cc1cc(I)c(C(N)=O)cc1C, which melting point is on record?
Answer: 195 to 197 °C

Question: With NC1=CC=C(c2ccccc2)CC1(Cl)C(O)(C1CC1)C1CC1 (stereo not given) as the compound, how does the melting point read?
Answer: 90 to 92 °C

Question: For CCn1cc(C(=O)O)c(=O)c2c(C)c(F)c(F)cc21, which melting point is on record?
Answer: > 300 °C

Question: Which melting point does the source give for CCCc1ccc(-c2ccc(-c3ccc(CC)cc3)cc2F)s1 here?
Answer: 41 °C

Question: With Clc1ccc(C=CC(C=Cc2ccc(Cl)cc2)=NNC2=NCC(c3ccccc3)(c3ccccc3)N2)cc1 as the compound, how does the melting point read?
Answer: 227 °C

Question: For CC(C)c1nnn(-c2c(Cl)cccc2Cl)c1COc1ccc(N(C)C(=O)c2ccc(C(=O)O)cc2)c(C(F)(F)F)n1, which melting point is on record?
Answer: 218 to 219 °C

Question: Which melting point does the source give for Cc1cc(NS(=O)(=O)c2ccccc2)cnc1CCCC(=O)O here?
Answer: 169 to 179 °C

Question: Which melting point does the source give for COCCn1c(=O)ccc2cnc(Nc3ccccc3)nc21 here?
Answer: 179 to 180 °C

Question: With COc1ccc(C(O)(Cc2ccccc2)c2ccccc2)cc1 (stereo not given) as the compound, how does the melting point read?
Answer: 111 to 112 °C

Question: For CON=C(N)C(F)(F)C(O)(Cn1cncn1)c1ccc(F)cc1F (stereo not given), which melting point is on record?
Answer: 114 °C

Question: With CC1CC(=Cc2ccccc2Cl)C(=O)O1 (stereo not given) as the compound, how does the melting point read?
Answer: 48 °C

Question: With CC(=O)N1c2ccccc2C[C@H]1C(N)=O as the compound, how does the melting point read?
Answer: > 260 °C

Question: For O=C(O)Cc1cc(C(=O)c2ccc(Br)cc2)sc1-c1ccccc1, which melting point is on record?
Answer: 147 to 150 °C

Question: For CCCCn1c(CO)nc2c(N)nc3ccccc3c21, which melting point is on record?
Answer: 223 to 225 °C

Question: Which melting point does the source give for CC(C)n1nc(-c2c(-c3ccccc3)nn3ccc(OCC(=O)N4CCN(C(=O)OC(C)(C)C)CC4)cc23)ccc1=O here?
Answer: 140 to 144 °C

Question: For CCn1nc(-c2ccccc2)c(C(C)=O)c(Nc2ccc(O)c3ncccc23)c1=O, which melting point is on record?
Answer: 262 to 263 °C

Question: With CC(=O)SCCc1ncn(C(c2ccccc2)(c2ccccc2)c2ccccc2)n1 as the compound, how does the melting point read?
Answer: 135 to 140 °C

Question: For COc1ccc2cc(-c3noc4cc(OC)ccc34)ccc2c1, which melting point is on record?
Answer: 141 to 143 °C

Question: With C=C(C)C(=O)c1cn2c(C)c(CC)c(SC)nc2n1 as the compound, how does the melting point read?
Answer: 136 to 137 °C

Question: With CC(Cn1ncnn1)n1nnc2cc3c(=O)n(Cc4cccnc4)nnc3cc2c1=O (stereo not given) as the compound, how does the melting point read?
Answer: 200 °C

Question: With CCCCCCCC(=O)OCCCCCCOc1ccc(Nc2ccccc2)cc1 as the compound, how does the melting point read?
Answer: 42 to 43 °C

Question: For CCOC(=O)CCc1cn(-c2ccccc2)nc1OCc1ccc(OCc2nc(-c3ccco3)oc2C)c(OC)c1, which melting point is on record?
Answer: 97 to 98 °C

Question: Which melting point does the source give for Oc1ccc(-c2nnc(CSCCOc3ccccc3)o2)cc1 here?
Answer: 172 to 175 °C

Question: With CC(C)(Cl)C(CNC(=O)c1ccc([N+](=O)[O-])o1)N=O (stereo not given) as the compound, how does the melting point read?
Answer: 110 to 112 °C

Question: With CC(C)(C)OC(=O)Nc1ccc(-c2ccccc2F)cc1NC(=O)CC(=O)c1cc(C#N)ccc1F as the compound, how does the melting point read?
Answer: 170 °C

Question: Which melting point does the source give for Cn1c(C(=O)O)c(Oc2ccc(Cl)cc2N)c2ccccc21 here?
Answer: 204 to 206 °C

Question: Which melting point does the source give for O=C(CCCCCCCCCCS(=O)c1ccccc1[N+](=O)[O-])OCc1ccccc1 (stereo not given) here?
Answer: 37 to 38 °C

Question: For COc1cc(OC)nc(C(OC)(C(=O)NS(C)(=O)=O)c2ccccc2)n1 (stereo not given), which melting point is on record?
Answer: 155 to 157 °C

Question: With O=[N+]([O-])c1ccc2c(c1)CCN(Cc1ncn[nH]1)C2 as the compound, how does the melting point read?
Answer: 163 to 166 °C

Question: For O=C1c2cc([N+](=O)[O-])ccc2CC1Br (stereo not given), which melting point is on record?
Answer: 102 to 105 °C

Question: Which melting point does the source give for CC(Cl)(Cl)c1nc2c(C(F)(F)F)cccc2c(=O)o1 here?
Answer: 120 °C

Reference: a melting point compilation (Tetko et al.; mined from patent text by program, amines drawn as free bases though some values may be those of a salt)
